Tests used:
SaBphP2 PCM [1] = target: T1, SaBphP2 PCM (Allostigmatella aurantiaca, UniProt Q09E27, H275T); experiment: X-ray crystal structure ([…] Å, […] K); assay type: binding; conditions: covalent (thioether to Cys13); Pr state, dark; chromophore
T1 construct: gene STIAU_8420; photosensory core module PAS-GAF-PHY, residues 1-497, histidine kinase domain removed; homodimer; BV on Cys13

SaBphP2 PCM [2] = target: T2, SaBphP2 PCM (Allostigmatella aurantiaca, UniProt Q09E27); experiment: X-ray crystal structure ([…] Å, […] K; SFX […] Å, […] K); assay type: binding; conditions: covalent (thioether to Cys13); Pr state, dark; chromophore
T2 construct: gene STIAU_8420; photosensory core module PAS-GAF-PHY, residues 1-497, histidine kinase domain removed; homodimer; BV on Cys13
T2 sequence (Q09E27 entry or part of it): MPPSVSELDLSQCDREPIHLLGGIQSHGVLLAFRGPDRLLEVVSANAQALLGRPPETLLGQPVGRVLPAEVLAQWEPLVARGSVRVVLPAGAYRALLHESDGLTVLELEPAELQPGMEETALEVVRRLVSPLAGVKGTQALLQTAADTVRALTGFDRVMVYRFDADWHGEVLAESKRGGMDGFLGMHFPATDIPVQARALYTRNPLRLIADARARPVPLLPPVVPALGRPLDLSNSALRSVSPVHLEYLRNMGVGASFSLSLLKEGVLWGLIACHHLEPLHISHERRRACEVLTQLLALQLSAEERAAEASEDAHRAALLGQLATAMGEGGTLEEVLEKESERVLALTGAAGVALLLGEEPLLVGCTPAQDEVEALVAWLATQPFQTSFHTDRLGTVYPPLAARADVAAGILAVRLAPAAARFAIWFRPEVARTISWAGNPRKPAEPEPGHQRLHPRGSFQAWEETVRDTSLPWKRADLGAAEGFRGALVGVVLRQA

T1 sequence (Q09E27 entry or part of it H275T): as the sequence (Q09E27 entry or part of it) above, with H275T counted along it

Question: Which results are given for `C=CC1=C(C)C(=Cc2[nH]c(C=C3N=C(C=C4NC(=O)C(C)=C4C=C)C(C)=C3CCC(=O)O)c(CCC(=O)O)c2C)NC1=O` [biliverdin]?
Answer: X-ray crystal structure (2.2 Å, 100 K) (SaBphP2 PCM [1]): The cryostructure of the His275Thr mutant is essentially identical to that of the wild-type; X-ray crystal structure (1.65 Å, 100 K; SFX 2.1 Å, 293 K) (SaBphP2 PCM [2]): The BV chromophore is bound to Cys13 close to the N-terminus

From PMC6748860, “High-resolution crystal structures of a myxobacterial phytochrome at cryo and room temperatures” (Structural Dynamics, 2019)
